Some results are limits rather than exact numbers.

T1 sequence (O75417 1-899): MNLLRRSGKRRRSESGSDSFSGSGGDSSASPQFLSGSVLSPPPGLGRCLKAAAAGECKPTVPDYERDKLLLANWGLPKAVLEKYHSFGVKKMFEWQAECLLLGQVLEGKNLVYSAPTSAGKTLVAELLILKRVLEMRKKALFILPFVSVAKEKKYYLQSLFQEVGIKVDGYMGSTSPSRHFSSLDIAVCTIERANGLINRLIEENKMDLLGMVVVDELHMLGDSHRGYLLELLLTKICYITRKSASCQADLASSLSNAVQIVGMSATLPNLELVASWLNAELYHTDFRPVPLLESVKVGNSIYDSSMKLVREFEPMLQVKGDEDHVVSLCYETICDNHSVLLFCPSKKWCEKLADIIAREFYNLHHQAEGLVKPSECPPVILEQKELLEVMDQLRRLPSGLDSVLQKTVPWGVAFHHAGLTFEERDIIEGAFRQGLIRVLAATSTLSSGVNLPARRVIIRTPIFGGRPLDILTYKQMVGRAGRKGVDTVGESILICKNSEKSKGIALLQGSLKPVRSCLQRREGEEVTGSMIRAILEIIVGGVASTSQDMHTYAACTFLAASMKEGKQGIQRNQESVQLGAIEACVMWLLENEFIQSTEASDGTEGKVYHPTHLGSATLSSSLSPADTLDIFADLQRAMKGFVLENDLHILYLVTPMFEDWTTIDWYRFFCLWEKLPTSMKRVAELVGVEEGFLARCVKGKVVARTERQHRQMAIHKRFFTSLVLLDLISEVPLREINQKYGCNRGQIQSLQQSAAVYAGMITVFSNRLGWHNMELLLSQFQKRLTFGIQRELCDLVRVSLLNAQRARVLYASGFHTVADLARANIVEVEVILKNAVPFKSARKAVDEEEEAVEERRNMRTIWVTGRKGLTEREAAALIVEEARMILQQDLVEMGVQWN

The first assay concerns the target T1, Pol theta (1-899) (Homo sapiens, UniProt O75417).
T1 construct: Pol theta (1-899) (5 nM) in assay buffer
Briefly: Pol theta ATPase activity, NADH oxidation-coupled enzymatic assay (ATPase NADH coupling: Standard Screening: hPolQ). It counts as biochemical. The settings on record: Pol theta (1-899) 5 nM, NADH oxidation-coupled ATPase assay; compounds of Table 3. In short, it runs like this: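 Rates of ATP hydrolysis taken from 60-min A340 traces of NADH oxidation via PK/LDH coupling, then fit four-parameter for IC50, Hill slope and max inhibition. Enzyme (5 nM, 1-899) and compounds preincubated 15 min before ATP 100 μM and 50-thymine ssDNA 300 nM (stock, equal volume added).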
As to `COc1cnc(Cl)cc1-c1cc(C)ncc1C(=O)Nc1nnc(O[C@H]2CCCN(C3CCOC3)C2)s1` (stereo in doubt) [Example 310, 2′-chloro-5′-methoxy-6-methyl-N-(5-(((S)-1-((S)-tetrahydrofuran-3-yl)piperidin-3-yl)oxy)-1,3,4-thiadiazol-2-yl)-[4,4′-bipyridine]-3-carboxamide], the concentration for half-maximal inhibition (IC50) is no more than 200 nM.
In the case of `COc1nnc(NC(=O)c2cnc(C)cc2-c2ccnc(C(F)(F)F)c2)s1` [Example 467, N-(5-methoxy-1,3,4-thiadiazol-2-yl)-6-methyl-2′-(trifluoromethyl)-[4,4′-bipyridine]-3-carboxamide], the half-maximal inhibitory concentration (IC50) was in the range of 500 to 1000 nM.
For `COc1nnc(NC(=O)c2cc(N3CCC3)ncc2-c2cc(Cl)ncc2OC)s1` [Example 323, 6-(azetidin-1-yl)-2′-chloro-5′-methoxy-N-(5-methoxy-1,3,4-thiadiazol-2-yl)-[3,4′-bipyridine]-4-carboxamide], the IC50 was no more than 200 nM.
`COc1nnc(NC(=O)c2cnc(C)cc2-c2cn(C)c3ccccc23)s1` [Example 464, N-(5-methoxy-1,3,4-thiadiazol-2-yl)-6-methyl-4-(1-methyl-1H-indol-3-yl)pyridine-3-carboxamide]: the IC50 lay in the range of 1000 to 10000 nM.
As for `COc1nnc(NC(=O)c2cnc(C)cc2-c2cccc(OCC#N)c2)s1` [Example 466, 4-[3-(cyanomethoxy)phenyl]-N-(5-methoxy-1,3,4-thiadiazol-2-yl)-6-methylpyridine-3-carboxamide], the IC50 was 1000 to 10000 nM.
The molecule `COc1nnc(NC(=O)c2cnc(C)cc2-c2cccc3ncccc23)s1` [Example 485, N-(5-methoxy-1,3,4-thiadiazol-2-yl)-6-methyl-4-(quinolin-5-yl)nicotinamide] registered a half-inhibitory concentration (IC50) of 200 to 500 nM.
On to `COc1nnc(NC(=O)c2cnc(C)cc2-c2cnc(C(F)(F)F)c(F)c2)s1` [Example 342, 5-fluoro-N-(5-methoxy-1,3,4-thiadiazol-2-yl)-6′-methyl-6-(trifluoromethyl)-[3,4′-bipyridine]-3′-carboxamide], for which the IC50 lay within 1000 to 10000 nM.
In turn, `COc1cnc(Cl)c(F)c1-c1cc(C)ncc1C(=O)Nc1nnc(O[C@H]2CC[C@H](CO)CC2)s1` [Example 316, 2′-chloro-3′-fluoro-N-(5-(((1r,4r)-4-(hydroxymethyl)cyclohexyl)oxy)-1,3,4-thiadiazol-2-yl)-5′-methoxy-6-methyl-[4,4′-bipyridine]-3-carboxamide] gave an IC50 of no more than 200 nM.
The molecule `COc1nnc(NC(=O)c2cnc(C)cc2-c2cccc3ccccc23)s1` [Example 398, N-(5-methoxy-1,3,4-thiadiazol-2-yl)-6-methyl-4-(naphthalen-1-yl)pyridine-3-carboxamide] displayed a half-maximal inhibitory concentration (IC50) of no more than 200 nM.
With `COc1nnc(NC(=O)c2cnc(C)cc2-c2ccc(P(C)(C)=O)cc2OC)s1` [Example 303, 4-(4-(dimethylphosphoryl)-2-methoxyphenyl)-N-(5-methoxy-1,3,4-thiadiazol-2-yl)-6-methylnicotinamide], the IC50 is 1000 to 10000 nM.
In turn, `COc1nnc(NC(=O)c2cnc(C)cc2-c2ccc(-c3ccccc3)cc2)s1` [Example 370, 4-{[1,1′-biphenyl]-4-yl}-N-(5-methoxy-1,3,4-thiadiazol-2-yl)-6-methylpyridine-3-carboxamide] registered an IC50 of 1000 to 10000 nM.
The same measure, in the same setting: for `COc1nnc(NC(=O)c2cnc(C)cc2-c2cccc(C(=O)NC3CC3)c2)s1` [Example 344, 4-[3(cyclopropylcarbamoyl)phenyl]-N-(5-methoxy-1,3,4-thiadiazol-2-yl)-6-methylpyridine-3carboxamide] the value was 1000 to 10000 nM; for `COc1nnc(NC(=O)c2cnc(C)cc2-c2cccs2)s1` [Example 360, N-(5-methoxy-1,3,4-thiadiazol-2-yl)-6-methyl-4-(thiophen-2-yl)pyridine-3-carboxamide], 1000 to 10000 nM; for `COc1nnc(NC(=O)c2cnc(C)cc2-c2cc(Br)c([S@@+](C)[O-])cc2OC)s1` (single isomer, unassigned) [Example 319], no more than 200 nM.

Staying with this assay, now noted: Table 4; Pol theta (1-899) 5 nM, ATP, dT50 ssDNA.
Regarding `COc1nnc(NC(=O)c2cnc(C)cc2-c2cc([C@@H](C)O)ncc2OC)s1` (single isomer, unassigned) [Example 69], the concentration for half-maximal inhibition (IC50) was 1000 to 10000 nM.
With `COc1cnc(Cl)cc1-c1cc(C)ncc1C(=O)Nc1nnc(O[C@H]2CCOC2)s1` [Example 22, (S)-2′-chloro-5′-methoxy-6-methyl-N-(5-((tetrahydrofuran-3-yl)oxy)-1,3,4-thiadiazol-2-yl)-(4,4′-bipyridine)-3-carboxamide], the IC50 was no more than 200 nM.
Consider `COc1nnc(NC(=O)c2c[n+]([O-])c(C)cc2-c2cc(Cl)ncc2OC)s1` [Example 65, 2′-chloro-5′-methoxy-5-((5-methoxy-1,3,4-thiadiazol-2-yl)carbamoyl)-2-methyl-(4,4′-bipyridine) 1-oxide], for which the IC50 was 500 to 1000 nM.

The assay is the same for the next values; noted with them: Table 5; Pol theta (1-899) 5 nM, ATP, dT50 ssDNA.
Molecule `COc1cnc(Cl)cc1-c1cc(C)ncc1C(=O)Nc1nnc(O[C@H]2COC3(CC3)C2)s1` (single isomer, unassigned) [Example 117] yielded an IC50 of no more than 200 nM.
The same measure, in the same setting: for `COc1cnc(C)c(F)c1-c1cc(C)ncc1C(=O)Nc1nnc(O[C@H]2CC[C@H](O)CC2)s1` [Example 202, 3′-fluoro-N-(5-(((1r,4r)-4-hydroxycyclohexyl)oxy)-1,3,4-thiadiazol-2-yl)-5′-methoxy-2′,6-dimethyl-(4,4′-bipyridine)-3-carboxamide] the value was no more than 200 nM; for `COc1cnc(C)c(F)c1-c1cc(C)ncc1C(=O)Nc1nnc(O[C@H]2C[C@@H]3CC[C@H]2O3)s1` (single isomer, unassigned) [Example 219], no more than 200 nM.
Take `COc1cnc(C)c(F)c1-c1cc(C)ncc1C(=O)Nc1nnc(O[C@@H]2COC3(CC3)C2)s1` (single isomer, unassigned) [Example 207]: the concentration for half-maximal inhibition (IC50) is no more than 200 nM.
Still for that read-out and setting: to `COc1nnc(NC(=O)c2cnc(C)cc2-c2ccc3nscc3c2)s1` [Example 105, 4-(benzo(c)isothiazol-5-yl)-N-(5-methoxy-1,3,4-thiadiazol-2-yl)-6-methylnicotinamide] belongs 1000 to 10000 nM.
For the molecule `COc1cnc(Cl)c(F)c1-c1cc(C)ncc1C(=O)Nc1nnc(O[C@H]2C[C@H](OC)C2)s1` (single isomer, unassigned) [Example 151, 2′-chloro-3′-fluoro-5′-methoxy-N-(5-((1r,3r)-3-methoxycyclobutoxy)-1,3,4-thiadiazol-2-yl)-6-methyl-(4,4′-bipyridine)-3-carboxamide], the concentration for half-maximal inhibition (IC50) is no more than 200 nM.
The molecule `COc1cnc(Cl)cc1-c1cc(C)ncc1C(=O)Nc1nnc(O[C@@]2(C)CCOC2)s1` (single isomer, unassigned) [Example 138] yielded an IC50 of no more than 200 nM.
The same measure, in the same setting: to `COc1cnc(Cl)cc1-c1cc(C)ncc1C(=O)Nc1nnc(O[C@H]2CC[C@@H](OC)CC2)s1` (single isomer, unassigned) [Example 124, 2′-chloro-5′-methoxy-N-(5-(((1s,4s)-4-methoxycyclohexyl)oxy)-1,3,4-thiadiazol-2-yl)-6-methyl-(4,4′-bipyridine)-3-carboxamide] belongs no more than 200 nM; to `COc1cnc(Cl)cc1-c1cc(C)ncc1C(=O)Nc1nnc(O[C@H]2CC[C@@H]([C@@H](C)O)CC2)s1` (single isomer, unassigned) [Example 212], no more than 200 nM; to `COc1cnc(Cl)cc1-c1cc(C)ncc1C(=O)Nc1nnc(OC2CCC3(CCCO3)CC2)s1` (single isomer, unassigned) [Example 174, N-(5-(((5r,8s)-1-oxaspiro(4.5)decan-8-yl)oxy)-1,3,4-thiadiazol-2-yl)-2′-chloro-5′-methoxy-6-methyl-(4,4′-bipyridine)-3-carboxamide], no more than 200 nM.
For `COc1cnc(Cl)cc1-c1cc(COC2CC2)ncc1C(=O)Nc1nnc(O[C@@H]2CCOC2)s1` [Example 214, (R)-2′-chloro-6-(cyclopropoxymethyl)-5′-methoxy-N-(5-((tetrahydrofuran-3-yl)oxy)-1,3,4-thiadiazol-2-yl)-(4,4′-bipyridine)-3-carboxamide], the IC50 was no more than 200 nM.
The molecule `COc1cnc(Cl)cc1-c1cc(C)ncc1C(=O)Nc1nnc(O[C@H]2CC[C@](C)(O)CC2)s1` (single isomer, unassigned) [Example 140, 2′-chloro-N-(5-(((1r,4r)-4-hydroxy-4-methylcyclohexyl)oxy)-1,3,4-thiadiazol-2-yl)-5′-methoxy-6-methyl-(4,4′-bipyridine)-3-carboxamide] had an IC50 of no more than 200 nM.
In turn, `COc1cnc(Br)cc1-c1cc(C)ncc1C(=O)Nc1nnc(O[C@H]2CC[C@](C)(O)CC2)s1` (single isomer, unassigned) [Example 225, 2′-bromo-N-(5-(((1r,4r)-4-hydroxy-4-methylcyclohexyl)oxy)-1,3,4-thiadiazol-2-yl)-5′-methoxy-6-methyl-(4,4′-bipyridine)-3-carboxamide] displayed an IC50 of no more than 200 nM.

The assay is the same for the next values; noted with them: Table 5; values given as bound; Pol theta (1-899) 5 nM, ATP, dT50 ssDNA.
`COc1nnc(NC(=O)c2ccn(-c3cc(Cl)ncc3OC)n2)s1` [Example 235, 1-(2-chloro-5-methoxypyridin-4-yl)-N-(5-methoxy-1,3,4-thiadiazol-2-yl)-1H-pyrazole-3-carboxamide]: the concentration for half-maximal inhibition (IC50) was greater than 10000 nM.

By IC50 is commonly meant the concentration that inhibits the measured activity by half. The low end stands for greater potency in that assay, the high end for weaker potency in that assay.

(Values after patent US20240287080A1 (IDEAYA Biosciences Inc., priority 2021, published 2024).)
